Reference: patent publication US20240208901A1, “Deuterated 3,3'-Diselenodipropionic Acid (DSePA) and Its Use as an Anticancer or Radioprotective Agent” (Secretary, Department of Atomic Energy, priority 2022, published 2024)

What was measured:
A549 cells = test: Clonogenic assay, combinatorial treatment with γ-irradiation in A549 cells; format: cell-based, human
Procedure: Further, clonogenic assay is considered as the gold standard method for evaluating the anticancer activity of any compound and is also a good indicator of the in vivo efficacy of any anticancer compound. Therefore, the therapeutic index of DSePA and D-DSePA in A549/WI-38 cells was also validated by employing the clonogenic assay. For this, A549/WI-38 cells were treated with the varying concentrations (0.1-2 μM)/(1-500 μM) of DSePA/D-DSePA for seven days and the survival fraction was calculated by counting the number of surviving clones (FIG. 11A). The plot of survival fraction verses the concentration of DScPA/D-DSCPA was used to estimate the IC50 of above compounds to inhibit the growth of A549/WI-38 cells. […] This clearly confirmed that deuteration of DScPA reduced its toxicity in normal cells without compromising its efficacy in cancer cells. Since anticancer agents are intended to be used in combination with radiation, DSePA/D-DSePA at a treatment concentration of 0.5 μM (dose close to IC50 as determined by clonogenic assay) was combined with varying absorbed doses (2-8 Gy) of γ-irradiation and the effect of combinatorial treatment on the viability of A549 cells was determined by clonogenic assay (FIG. 12A & 12B). For this, A549 cells exposed to the varying absorbed doses (2-8 Gy) of γ-radiation were immediately treated with DScPA/D-DScPA and cultured for seven days prior to clonogenic assay. […] The D10 value of the combinatorial treatment involving DScPA estimated was 4.5 Gy (FIG. 12B). Similarly, D10 value of the combinatorial treatment involving D-DSePA estimated was 4 Gy. From these values, the dose modification factor (DMF or the ratio of the D10 of combinatorial treatment to that of D10 of radiation) of DScPA and D-DScPA estimated was 0.87±0.01 and 0.83±0.02 respectively. […] While the objective of radiotherapy is to achieve tumor control, it is also known to cause normal tissue toxicity. Previously, DSePA has been reported to protect normal cells from lethal effects of γ-radiation. Thus radio-protective activity of D-DSePA was compared with DScPA in terms of their abilities to protect non-cancerous lung fibroblast (WI-38) cells against γ-irradiation induced cell death. For this, WI-38 cells were pretreated with DSePA/D-DScPA for 24 h at an identical concentration of 0.5 μM (close to IC50 required to inhibit growth of A549 lung cancer cells by clonogenic assay) and then exposed to varying doses (2-12 Gy) of γ-irradiation. The survival of cells against radiation exposure was estimated by clonogenic assay and the dose response curve was prepared in the presence and absence of drug (DSePA/D-DScPA) (FIG. 12C & 12D). By using this dose response curve, the dose modification factor (DMF or the ratio of the D10 of radiation plus drug and D10 of radiation alone) of DSePA and D-DSePA estimated was 1.12±0.03 and 1.16±0.05 respectively.
Clonogenic assay—Clonogenic assay was performed according to the method reported previously. […] After 7 days, colonies were fixed with absolute methanol for 5 min, stained with 0.5% crystal violet for 5 min, washed with distilled water to remove excess stain and counted manually under a stereo microscope. […] The plating efficiency and the survival fraction under irradiated and drug treated conditions were calculated using following formulae: […]
The plating efficiency of A549 and WI38 cells was calculated by seeding ˜300 and ˜500 cells respectively. […]

H3122 cells = test: MTT assay, anti-proliferative effect in H3122 cells; format: cell-based, human; details: Homo sapiens, NCI-H3122, 48 h treatment, read-out: IC50 to inhibit cell proliferation
Procedure: Therefore, D-DSePA was compared with un-deuterated DSePA for its anticancer activity in A549, H1975 and H3122 cell lines which are representative of NSCLC. For this, above cells were treated with the varying concentrations (0.1-100 μM) of DSePA/D-DSePA for 48 h and the cell viability was determined by MTT assay (FIG. 9A-C). The plot of percent (%) cytotoxicity (100-% viability) versus the concentration of DSePA/D-DSePA was used to estimate the half maximum concentration (IC50) of above compounds to inhibit the proliferation of cells. […] Employing these values, the therapeutic index (IC50 in normal lung cell/IC50 in lung cancer cell) of DSePA and D-DSePA in different pairs of normal versus cancerous cells (viz., A549/WI-38, A549/WI-26 VA4, H1975/WI-38, H1975/WI-26 VA4, H3122/WI-38 and H3122/WI-26 VA4) was calculated (Table-3). […]
MTT Assay—To evaluate the anti-proliferative effect of D-DScPA and DScPA, Cells (˜5×10^3) suspended in 100 μl of complete culture medium were seeded in each well of 96 well plates. […] The percentage (%) cytotoxicity was calculated from the decrease in absorbance at 570 nm of treated groups as compared to that of control group. […] The therapeutic index was calculated by normalizing the IC50 concentration of D-DSePA/DSePA in non-cancerous cells to that in cancerous cells.

O=C(O)CC[Se][Se]CCC(=O)O [DSePA, 3,3′-diselenodipropionic acid]
dose modification factor (DMF, D10 of combinatorial treatment / D10 of radiation) (A549 cells; 0.5 μM drug immediately after γ-radiation (2-8 Gy)): 0.87±0.01
D10 value (decimal reduction dose) of the combinatorial treatment (A549 cells; γ-radiation 2-8 Gy then 0.5 μM drug immediately, seven days, radiation alone D10 5 Gy): 4.5 Gy
IC50 (H3122 cells): 21.5 ± 1.2 µM
